Test results as given in patent publication US12486274B2, “Substituted pyrazolo-pyrimidines and uses thereof” (Verge Analytics, Inc., priority 2020, dated 2025).

Biological target: Full length human recombinant PIKFYVE (Homo sapiens (Human), UniProt Q9Y2I7)
Experiment: Inhibition of PIKfyve (microfluidic electrophoresis kinase assay)
Type: biochemical
Conditions: 2 nM enzyme, PI3P/PS substrate, 3 h at room temperature, 12 concentrations
Method: Full length human recombinant PIKFYVE expressed in baculovirus expression system as N-terminal GST-fusion protein (265 kDa) was obtained from Carna Biosciences (Kobe, Japan). The kinase substrate was prepared by mixing and sonicating fluorescently-labeled phosphatidylinositol 3-phosphate (PI3P) with phospho-L-serine (PS) at a 1:10 ratio in 50 mM HEPES buffer pH7.5.
The kinase reactions were assembled in 384-well plates (Greiner) in a total volume of […] as follows. Kinase protein was pre-diluted in an assay buffer comprising 25 mM HEPES, pH 7.5, 1 mM DTT, 2.5 mM MgCl2, and 2.5 mM MnCl2, and 0.005% Triton X-100, and dispensed into a 384-well plate (10 μL per well). Test compounds were serially pre-diluted in DMSO and added to the protein samples by acoustic dispensing (Labcyte Echo). The concentration of DMSO was equalized to 1% in all samples. All test compounds were tested at 12 concentrations. Apilimod was used as a reference compound and was tested in identical manner in each assay plate. Control samples (0%-inhibition, in the absence of inhibitor, DMSO only) and 100%-inhibition (in the absence of enzyme) were assembled in replicates of four and were used to calculate %-inhibition in the presence of compounds. The reactions were initiated by addition of 10 μL of 2× PI3P/PS substrate supplemented with ATP. The final concentration of enzyme was 2 nM, the final concentration of ATP was 10 mM, and the final concentration of PI3P/PS substrate was 1 μM (PI3P). The kinase reactions were allowed to proceed for 3 h at room temperature. Following incubation, the reactions were quenched by addition of […] of termination buffer (100 mM HEPES, pH 7.5, 0.01% Triton X-100, 20 mM EDTA). Terminated plates were analyzed on a microfluidic electrophoresis instrument (Caliper LabChip® 3000, Caliper Life Sciences/Perkin Elmer). The change in the relative fluorescence intensity of the PI (3) P substrate and PI (3,5) P product peaks was measured. The activity in each test sample was determined as the product to sum ratio (PSR): P/(S+P), where P is the peak height of the product, and S is the peak height of the substrate. Percent inhibition (Pinh) was determined using the following equation: Pinh=(PSR0% inh−PSRcompound)/(PSR0% inh−PSR100% inh)*100 in which PSRcompound is the product/sum ratio in the presence of compound, PSR0% inh is the product/sum ratio in the absence of compound, and the PSR100% inh is the product/sum ratio in the absence of the enzyme.

Chain of Full length human recombinant PIKFYVE (Q9Y2I7 whole entry): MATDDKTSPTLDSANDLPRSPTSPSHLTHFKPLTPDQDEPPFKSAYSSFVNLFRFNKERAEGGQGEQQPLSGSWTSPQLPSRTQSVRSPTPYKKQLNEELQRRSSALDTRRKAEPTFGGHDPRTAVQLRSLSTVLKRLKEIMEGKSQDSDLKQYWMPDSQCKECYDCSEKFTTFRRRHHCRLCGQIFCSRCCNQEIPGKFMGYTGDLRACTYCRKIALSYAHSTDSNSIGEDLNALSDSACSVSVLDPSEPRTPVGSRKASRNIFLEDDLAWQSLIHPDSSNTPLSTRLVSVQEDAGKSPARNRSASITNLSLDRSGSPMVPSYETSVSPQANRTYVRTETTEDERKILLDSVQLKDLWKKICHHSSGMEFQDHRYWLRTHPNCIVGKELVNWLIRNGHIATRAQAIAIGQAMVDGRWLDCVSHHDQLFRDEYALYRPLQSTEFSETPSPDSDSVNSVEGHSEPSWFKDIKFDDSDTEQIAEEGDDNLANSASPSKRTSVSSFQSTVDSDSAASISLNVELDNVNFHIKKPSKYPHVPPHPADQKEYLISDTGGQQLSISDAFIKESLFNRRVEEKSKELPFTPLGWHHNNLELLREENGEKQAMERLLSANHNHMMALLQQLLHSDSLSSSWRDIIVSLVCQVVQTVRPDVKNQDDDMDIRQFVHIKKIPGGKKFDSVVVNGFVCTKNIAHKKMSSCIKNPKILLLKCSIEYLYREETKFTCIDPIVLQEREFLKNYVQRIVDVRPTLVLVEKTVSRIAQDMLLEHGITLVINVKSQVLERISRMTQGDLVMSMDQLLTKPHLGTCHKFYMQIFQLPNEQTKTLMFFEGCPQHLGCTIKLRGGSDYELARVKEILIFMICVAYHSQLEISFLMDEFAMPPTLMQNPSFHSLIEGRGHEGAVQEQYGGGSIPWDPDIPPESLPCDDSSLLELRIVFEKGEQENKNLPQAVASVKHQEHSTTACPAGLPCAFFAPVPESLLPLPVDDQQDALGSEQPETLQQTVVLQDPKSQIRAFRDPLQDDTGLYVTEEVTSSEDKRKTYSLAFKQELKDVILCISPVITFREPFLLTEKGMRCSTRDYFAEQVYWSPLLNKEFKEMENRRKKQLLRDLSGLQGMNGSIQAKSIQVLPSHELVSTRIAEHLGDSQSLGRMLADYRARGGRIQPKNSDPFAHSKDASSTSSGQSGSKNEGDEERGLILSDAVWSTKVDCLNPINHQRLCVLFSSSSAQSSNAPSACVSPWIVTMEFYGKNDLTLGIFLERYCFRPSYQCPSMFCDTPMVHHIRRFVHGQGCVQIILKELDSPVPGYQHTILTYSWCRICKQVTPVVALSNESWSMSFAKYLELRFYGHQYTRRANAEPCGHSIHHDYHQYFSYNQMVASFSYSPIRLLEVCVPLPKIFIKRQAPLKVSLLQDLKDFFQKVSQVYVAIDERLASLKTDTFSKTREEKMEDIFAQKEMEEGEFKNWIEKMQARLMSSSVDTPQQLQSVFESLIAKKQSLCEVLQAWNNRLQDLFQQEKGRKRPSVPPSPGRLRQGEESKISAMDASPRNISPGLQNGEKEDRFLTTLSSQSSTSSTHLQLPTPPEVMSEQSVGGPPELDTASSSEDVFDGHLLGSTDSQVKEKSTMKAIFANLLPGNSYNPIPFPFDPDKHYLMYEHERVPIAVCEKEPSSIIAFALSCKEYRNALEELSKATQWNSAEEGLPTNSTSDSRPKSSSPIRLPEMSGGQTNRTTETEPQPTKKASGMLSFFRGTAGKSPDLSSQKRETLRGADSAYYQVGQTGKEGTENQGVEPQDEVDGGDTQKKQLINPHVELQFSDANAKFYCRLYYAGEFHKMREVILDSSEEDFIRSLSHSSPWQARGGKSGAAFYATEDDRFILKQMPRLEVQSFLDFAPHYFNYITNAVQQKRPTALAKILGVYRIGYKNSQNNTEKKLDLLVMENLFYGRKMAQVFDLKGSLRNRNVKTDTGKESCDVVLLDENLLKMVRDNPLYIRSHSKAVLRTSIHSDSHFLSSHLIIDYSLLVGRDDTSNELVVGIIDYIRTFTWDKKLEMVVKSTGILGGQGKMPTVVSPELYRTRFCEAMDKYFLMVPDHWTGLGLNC

| Compound | IC50 |
| --- | --- |
| Cc1cc(-c2cc3nc(-n4ccc(-c5ccncc5)n4)cc(N4CCOCC4)n3n2)nn1CCN(C)C [Compound 93, N,N-dimethyl-2-[5-methyl-3-[7-morpholino-5-[3-(4-pyridyl)pyrazol-1-yl]pyrazolo[1,5-a]pyrimidin-2-yl]pyrazol-1-yl]ethanamine] | > 10000 nM |
| CCC(=O)NCc1cc2nc(-n3ccc(-c4ccccc4)n3)cc(N3CCOCC3)n2n1 [Compound 90] | 2160 nM |
| Cc1cnn(-c2cc(N3CCOCC3)n3nc(-c4ccncc4)cc3n2)c1 [Example 12, 4-[5-(4-methylpyrazol-1-yl)-2-(4-pyridyl)pyrazolo[1,5-a]pyrimidin-7-yl]morpholine] | > 10000 nM |
| Cc1cccc(-c2ccn(-c3cc(N4CCOCC4)n4nc(C(=O)NCC5CC5)cc4n3)n2)c1 [Example 27, N-(cyclopropylmethyl)-7-morpholino-5-(3-(m-tolyl)-1H-pyrazol-1-yl)pyrazolo[1,5-a]pyrimidine-2-carboxamide] | 73.7 nM |
| CCNC(=O)c1cc2nc(-n3ccc(-c4cccc(C)c4)n3)cc(N3CCOCC3)n2n1 [Example 19, N-ethyl-7-morpholino-5-(3-(m-tolyl)-1H-pyrazol-1-yl)pyrazolo[1,5-a]pyrimidine-2-carboxamide] | 76.2 nM |
| Cc1cccc(-c2ccn(-c3cc(N4CCOCC4)n4nc(-c5cc(C)nn5CCN(C)C)cc4n3)n2)c1 [Compound 83, N,N-dimethyl-2-[3-methyl-5-[7-morpholino-5-[3-(m-tolyl)pyrazol-1-yl]pyrazolo[1,5-a]pyrimidin-2-yl]pyrazol-1-yl]ethanamine] | 22.6 nM |
| Cc1cccc(-c2ccn(-c3cc(N4CCOCC4)n4nc(C(=O)N[C@@H]5CCCN(C)C5)cc4n3)n2)c1 [Compound 52, N-[(3R)-1-methyl-3-piperidyl]-7-morpholino-5-[3-(m-tolyl)pyrazol-1-yl]pyrazolo[1,5-a]pyrimidine-2-carboxamide] | 28.4 nM |
| Cc1cc(-c2ccn(-c3cc(N4CCOCC4)n4nc(-c5cc(C)n(CCN(C)C)n5)cc4n3)n2)ccn1 [Compound 96, N,N-dimethyl-2-[5-methyl-3-[5-[3-(2-methyl-4-pyridyl)pyrazol-1-yl]-7-morpholino-pyrazolo[1,5-a]pyrimidin-2-yl]pyrazol-1-yl]ethanamine] | > 10000 nM |
| c1cc(-c2ccn(-c3cc(N4CCOCC4)n4nc(-c5ccncc5)cc4n3)n2)ccn1 [Example 15, 4-[2-(4-pyridyl)-5-[3-(4-pyridyl)pyrazol-1-yl]pyrazolo[1,5-a]pyrimidin-7-yl]morpholine] | 1100 nM |
| Cc1cc(-c2cc3nc(-n4ccc(-c5ccccc5)n4)cc(N4CCOCC4)n3n2)nn1CCN(C)C [Compound 99, N,N-dimethyl-2-[5-methyl-3-[7-morpholino-5-(3-phenylpyrazol-1-yl)pyrazolo[1,5-a]pyrimidin-2-yl]pyrazol-1-yl]ethanamine] | 127 nM |
| Cc1cccc(-c2ccn(-c3cc(N4CCOCC4)n4nc(C(=O)N(C)C)cc4n3)n2)c1 [Example 24, N,N-dimethyl-7-morpholino-5-(3-(m-tolyl)-1H-pyrazol-1-yl)pyrazolo[1,5-a]pyrimidine-2-carboxamide] | 276 nM |
| Cc1cccc(-c2ccn(-c3cc(N4CCOCC4)n4nc(C(=O)N5CCOCC5)cc4n3)n2)c1 [Example 31, morpholino (7-morpholino-5-(3-(m-tolyl)-1H-pyrazol-1-yl)pyrazolo[1,5-a]pyrimidin-2-yl)methanone] | 242 nM |
| Cc1cccc(-c2ccn(-c3cc(N4CCOCC4)n4nc(C(=O)N(C)C5CCCC5)cc4n3)n2)c1 [Example 37, N-cyclopentyl-N-methyl-7-morpholino-5-(3-(m-tolyl)-1H-pyrazol-1-yl)pyrazolo[1,5-a]pyrimidine-2-carboxamide] | 213 nM |
| c1cc(-c2cc3nc(Nc4cc(-c5ccncc5)[nH]n4)cc(N4CCOCC4)n3n2)ccn1 [Example 6, 7-morpholino-2-(4-pyridyl)-N-[5-(4-pyridyl)-1H-pyrazol-3-yl]pyrazolo[1,5-a]pyrimidin-5-amine] | 6100 nM |
| c1ccc(-c2cnn(-c3cc(N4CCOCC4)n4nc(-c5cccnc5)cc4n3)c2)cc1 [Compound 79, 4-[5-(4-phenylpyrazol-1-yl)-2-(3-pyridyl)pyrazolo[1,5-a]pyrimidin-7-yl]morpholine] | 333 nM |
| Cc1cccc(-c2cnn(-c3cc(N4CCOCC4)n4nc(-c5cnc(N)nc5)cc4n3)c2)c1 [Compound 60, 5-[7-morpholino-5-[4-(m-tolyl)pyrazol-1-yl]pyrazolo[1,5-a]pyrimidin-2-yl]pyrimidin-2-amine] | 6120 nM |
| Cc1cccc(-c2cnn(-c3cc(N4CCOCC4)n4nc(C(=O)NC5CCN(C)CC5)cc4n3)c2)c1 [Compound 55, N-(1-methyl-4-piperidyl)-7-morpholino-5-[4-(m-tolyl)pyrazol-1-yl]pyrazolo[1,5-a]pyrimidine-2-carboxamide] | 6420 nM |
| C[C@@H](NC(=O)c1cc2nc(-n3ccc(-c4ccccc4)n3)cc(N3CCOCC3)n2n1)C1CC1 [Compound 74, N-[(1R)-1-cyclopropylethyl]-7-morpholino-5-(3-phenylpyrazol-1-yl)pyrazolo[1,5-a]pyrimidine-2-carboxamide] | 353 nM |
| Cc1cccc(-c2ccn(-c3cc(N4CCOCC4)n4nc(-c5cn[nH]c5)cc4n3)n2)c1 [Compound 113, 4-[5-[3-(m-tolyl)pyrazol-1-yl]-2-(1H-pyrazol-4-yl)pyrazolo[1,5-a]pyrimidin-7-yl]morpholine] | 2.5 nM |
| Cc1cccc(-c2ccn(-c3cc(N4CCOCC4)n4nc(C(=O)NS(C)(=O)=O)cc4n3)n2)c1 [Example 35, N-(methylsulfonyl)-7-morpholino-5-(3-(m-tolyl)-1H-pyrazol-1-yl)pyrazolo[1,5-a]pyrimidine-2-carboxamide] | 422 nM |

Second part, the molecule after the results:

| IC50 | Compound |
| --- | --- |
| 752 nM | c1ccc(-c2ccn(-c3cc(N4CCOCC4)n4nc(-c5cncnc5)cc4n3)n2)cc1 [Compound 69, 4-[5-(3-phenylpyrazol-1-yl)-2-pyrimidin-5-yl-pyrazolo[1,5-a]pyrimidin-7-yl]morpholine] |
| 38.4 nM | Nc1cc(-c2ccccc2)nn1-c1cc(N2CCOCC2)n2nc(-c3ccncc3)cc2n1 [Example 7, 1-(7-morpholino-2-(pyridin-4-yl)pyrazolo[1,5-a]pyrimidin-5-yl)-3-phenyl-1H-pyrazol-5-amine] |
| 104 nM | Cn1ccc(-c2cc3nc(-n4ccc(-c5ccccc5)n4)cc(N4CCOCC4)n3n2)n1 [Compound 66, 4-[2-(1-methylpyrazol-3-yl)-5-(3-phenylpyrazol-1-yl)pyrazolo[1,5-a]pyrimidin-7-yl]morpholine] |
| 62.4 nM | Cn1cc(-c2cc3nc(-n4ccc(-c5ccccc5)n4)cc(N4CCOCC4)n3n2)cn1 [Compound 115, 4-[2-(1-methylpyrazol-4-yl)-5-(3-phenylpyrazol-1-yl)pyrazolo[1,5-a]pyrimidin-7-yl]morpholine] |
| 7.1 nM | COc1cccc(-c2ccn(-c3cc(N4CCOCC4)n4nc(-c5cccnc5)cc4n3)n2)c1 [Compound 107, 4-[5-[3-(3-methoxyphenyl)pyrazol-1-yl]-2-(3-pyridyl)pyrazolo[1,5-a]pyrimidin-7-yl]morpholine] |
| 143 nM | Nc1ncc(-c2cc3nc(-n4ccc(-c5ccccc5)n4)cc(N4CCOCC4)n3n2)cn1 [Compound 71, 5-[7-morpholino-5-(3-phenylpyrazol-1-yl)pyrazolo[1,5-a]pyrimidin-2-yl]pyrimidin-2-amine] |
| 207 nM | c1ccc(-c2ccn(-c3cc(N4CCOCC4)n4nc(-c5ccncc5)cc4n3)n2)cc1 [Example 13, 4-[5-(3-phenylpyrazol-1-yl)-2-(4-pyridyl)pyrazolo[1,5-a]pyrimidin-7-yl]morpholine] |
| 100 nM | c1ccc(-c2ccn(-c3cc(N4CCOCC4)n4nc(-c5nccs5)cc4n3)n2)cc1 [Compound 114, 4-[5-(3-phenylpyrazol-1-yl)-2-thiazol-2-yl-pyrazolo[1,5-a]pyrimidin-7-yl]morpholine] |
| 169 nM | c1ccc(-c2ccn(-c3cc(N4CCOCC4)n4nc(-c5cnccn5)cc4n3)n2)cc1 [Compound 82, 4-[5-(3-phenylpyrazol-1-yl)-2-pyrazin-2-yl-pyrazolo[1,5-a]pyrimidin-7-yl]morpholine] |
| > 10000 nM | c1ccc(-c2cnn(-c3cc(N4CCOCC4)n4nc(-c5ccncc5)cc4n3)c2)cc1 [Example 9, 4-[5-(4-phenylpyrazol-1-yl)-2-(4-pyridyl)pyrazolo[1,5-a]pyrimidin-7-yl]morpholine] |
